How the values were obtained:
[1] = biological target: IRAK4 enzyme (Homo sapiens (Human), UniProt Q9NWZ3); assay: biochemical; assay type: biochemical; conditions: IRAK4 enzyme, TR-FRET, 500 μM ATP
[2] = system: TNFα; assay: cells; assay type: cell-based, human; conditions: Homo sapiens, Monocyte, LPS-stimulated human monocytes, TNFα content; read-out: EC50 TNF

Chain of IRAK4 enzyme (Q9NWZ3 whole entry): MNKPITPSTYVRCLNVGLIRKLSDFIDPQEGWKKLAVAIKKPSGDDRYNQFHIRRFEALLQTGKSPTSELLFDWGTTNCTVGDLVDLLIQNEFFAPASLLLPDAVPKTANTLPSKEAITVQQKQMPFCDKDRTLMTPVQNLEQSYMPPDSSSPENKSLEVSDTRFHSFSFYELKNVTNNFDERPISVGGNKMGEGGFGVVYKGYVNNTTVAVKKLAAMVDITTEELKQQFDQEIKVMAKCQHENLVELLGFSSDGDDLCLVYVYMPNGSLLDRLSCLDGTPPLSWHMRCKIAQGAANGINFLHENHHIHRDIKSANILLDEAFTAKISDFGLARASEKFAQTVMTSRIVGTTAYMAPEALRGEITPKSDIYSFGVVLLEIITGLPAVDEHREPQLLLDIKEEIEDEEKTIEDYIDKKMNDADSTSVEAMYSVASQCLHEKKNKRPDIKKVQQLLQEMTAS

| Structure (SMILES) | IC50 [1] [nM] | EC50 [2] [nM] |
| --- | --- | --- |
| CC(C)Nc1cc(-c2ccc3cc(C#N)cnn23)ncc1C(=O)NNCC(C)(C)O [Example 69, 6-(3-cyanopyrrolo[1,2-b]pyridazin-7-yl)-N′-(2-hydroxy-2-methylpropyl)-4-(isopropylamino) nicotinohydrazide] | 7 | 515 |
| CC(C)(O)[C@H](F)CNC(=O)c1cnc(-c2ccc3cc(C#N)cnn23)cc1Nc1cn[nH]c1 [Example 70, (R)-4-((1H-pyrazol-4-yl)amino)-6-(3-cyano-pyrrolo[1,2-b]pyridazin-7-yl)-N-(2-fluoro-3-hydroxy-3-methylbutyl)nicotinamide] | < 1 | 47 |
| CC(C)Nc1cc(-c2ccc3cc(C#N)cnn23)ncc1C(=O)NC1CS(=O)(=O)C1 [Example 71, 6-(3-cyanopyrrolo[1,2-b]pyridazin-7-yl)-N-(1,1-dioxidothietan-3-yl)-4-(isopropylamino) nicotinamide] | 9 | 298 |
| CC(C)Nc1cc(-c2ccc3cc(C#N)cnn23)ncc1C(=O)NCC1CS(=O)(=O)C1 [Example 72, 6-(3-cyanopyrrolo[1,2-b]pyridazin-7-yl)-N-((1,1-dioxidothietan-3-yl)methyl)-4-(isopropylamino) nicotinamide] | 4 | 159 |
| CC(C)Nc1cc(-c2ccc3cc(C#N)cnn23)ncc1C(=O)NCC1CCS(=O)(=O)C1 (stereo not shown) [Example 73, 6-(3-cyanopyrrolo[1,2-b]pyridazin-7-yl)-N-((1,1-dioxidotetrahydrothiophen-3-yl)methyl)-4-(isopropylamino) nicotinamide] | 3 | 119 |
| CC(C)(O)[C@H](F)CNC(=O)c1cnc(-c2ccc3cc(C#N)cnn23)cc1NCC1CCS(=O)(=O)C1 (stereo partly drawn) [Example 74, 6-(3-cyanopyrrolo[1,2-b]pyridazin-7-yl)-4-(((1,1-dioxidotetrahydrothiophen-3-yl)methyl)amino)-N-((R)-2-fluoro-3-hydroxy-3-methylbutyl) nicotinamide] | 2 | 1100 |
| CC(C)(O)[C@H](F)CNC(=O)c1cnc(-c2ccc3cc(C#N)cnn23)cc1NC1CCS(=O)(=O)CC1 [Example 75, (R)-6-(3-cyanopyrrolo[1,2-b]pyridazin-7-yl)-4-((1,1-dioxidotetrahydro-2H-thiopyran-4-yl)amino)-N-(2-fluoro-3-hydroxy-3-methylbutyl) nicotinamide] | 3 | 544 |
| CC(C)(O)[C@H](F)CNC(=O)c1cnc(-c2ccc3cc(C#N)cnn23)cc1NC1CCS(=O)(=O)C1 (stereo partly drawn) [Example 76, 6-(3-cyanopyrrolo[1,2-b]pyridazin-7-yl)-4-((1,1-dioxidotetrahydrothiophen-3-yl)amino)-N-((R)-2-fluoro-3-hydroxy-3-methylbutyl)nicotinamide] | 1 | 348 |
| CC(C)(O)[C@H](F)CNC(=O)c1cnc(-c2ccc3cc(C#N)cnn23)cc1NC1CS(=O)(=O)C1 [Example 77, (R)-6-(3-cyanopyrrolo[1,2-b]pyridazin-7-yl)-4-((1,1-dioxidothietan-3-yl)amino)-N-(2-fluoro-3-hydroxy-3-methylbutyl)nicotinamide] | 2 | 352 |
| CC(C)Nc1cc(-c2ccc3cc(C(N)=O)cnn23)ncc1C(=O)NC1CS(=O)(=O)C1 [Example 78, 7-(5-((1,1-dioxidothietan-3-yl)carbamoyl)-4-(isopropyl-amino)pyridin-2-yl)pyrrolo[1,2-b] pyridazine-3-carboxamide] | 27 | 1620 |
| CC(C)Nc1cc(-c2ccc3cc(C(N)=O)cnn23)ncc1C(=O)NCC1CS(=O)(=O)C1 [Example 79, 7-(5-(((1,1-dioxidothietan-3-yl)methyl)carbamoyl)-4-(isopropylamino)pyridin-2-yl)pyrrolo[1,2-b] pyridazine-3-carboxamide] | 18 | 1820 |
| CC(C)(O)CCNc1cc(-c2ccc3cc(C#N)cnn23)ncc1C(=O)NC[C@@H](F)C(C)(C)O [Example 80, (R)-6-(3-cyanopyrrolo[1,2-b]pyridazin-7-yl)-N-(2-fluoro-3-hydroxy-3-methylbutyl)-4-((3-hydroxy-3-methylbutyl)amino) nicotinamide] | < 1 | 88 |
| CC1(C)CC(Nc2cc(-c3ccc4cc(C#N)cnn34)ncc2C(=O)NC[C@@H](F)C(C)(C)O)CCO1 (stereo partly drawn) [Example 81, 6-(3-cyanopyrrolo[1,2-b]pyridazin-7-yl)-4-((2,2-dimethyltetrahydro-2H-pyran-4-yl)amino)-N-((R)-2-fluoro-3-hydroxy-3-methylbutyl) nicotinamide] | 1 | 134 |
| CC(C)(O)[C@H](F)CNC(=O)c1cnc(-c2ccc3cc(C#N)cnn23)cc1NC1CC2(COC2)C1 [Example 82, (R)-4-(2-oxaspiro[3.3]heptan-6-ylamino)-6-(3-cyanopyrrolo[1,2-b]pyridazin-7-yl)-N-(2-fluoro-3-hydroxy-3-methylbutyl) nicotinamide] | < 1 | 79 |
| CC(C)(O)[C@H](F)CNC(=O)c1cnc(-c2ccc3cc(C#N)cnn23)cc1NC1CCN(C2COC2)CC1 [Example 83, (R)-6-(3-cyanopyrrolo[1,2-b]pyridazin-7-yl)-N-(2-fluoro-3-hydroxy-3-methylbutyl)-4-((1-(oxetan-3-yl)piperidin-4-yl)amino) nicotinamide] | 1 | 221 |
| CC(C)Nc1cc(-c2ccc3cc(C#N)cnn23)ncc1C(=O)NCCCS(C)(=O)=O [Example 85, 6-(3-cyanopyrrolo[1,2-b]pyridazin-7-yl)-4-(isopropyl-amino)-N-(3-(methylsulfonyl)propyl) nicotinamide] | 1 | 67 |
| CC(C)Nc1cc(-c2ccc3cc(C#N)cnn23)ncc1C(=O)NC1CCN(C2COC2)CC1 [Example 86, 6-(3-cyanopyrrolo[1,2-b]pyridazin-7-yl)-4-(isopropylamino)-N-(1-(oxetan-3-yl)piperidin-4-yl) nicotinamide] | 4 | 321 |
| COC(C)(C)CCNC(=O)c1cnc(-c2ccc3cc(C#N)cnn23)cc1NC(C)C [Example 87, 6-(3-cyanopyrrolo[1,2-b]pyridazin-7-yl)-4-(isopropylamino)-N-(3-methoxy-3-methylbutyl)nicotinamide] | 1 | 160 |
| CC(C)Nc1cc(-c2ccc3cc(C#N)cnn23)ncc1C(=O)NCCNS(C)(=O)=O [Example 88, 6-(3-cyanopyrrolo[1,2-b]pyridazin-7-yl)-4-(isopropyl-amino)-N-(2-(methylsulfonamido)ethyl) nicotinamide] | 3 | 209 |
| CC(C)(O)[C@H](F)CNC(=O)c1cnc(-c2ccc3cc(C#N)cnn23)cc1Nc1cnn(CC(F)F)c1 [Example 89, (R)-6-(3-cyanopyrrolo[1,2-b]pyridazin-7-yl)-4-((1-(2,2-difluoroethyl)-1H-pyrazol-4-yl)amino)-N-(2-fluoro-3-hydroxy-3-methylbutyl) nicotinamide] | < 1 | 16 |
| CC(C)Nc1cc(-c2ccc3cc(C#N)cnn23)ncc1C(=O)NC1CCC(C)(O)CC1 (stereo not shown) [Example 90, 6-(3-cyanopyrrolo[1,2-b]pyridazin-7-yl)-N-((1s,4s)-4-hydroxy-4-methylcyclohexyl)-4-(isopropylamino) nicotinamide] | 3 | 417 |
| CC(C)Nc1cc(-c2ccc3cc(C#N)cnn23)ncc1C(=O)NCCC1(O)CCC1 [Example 91, 6-(3-cyanopyrrolo[1,2-b]pyridazin-7-yl)-N-(2-(1-hydroxycyclobutyl)ethyl)-4-(isopropylamino) nicotinamide] | < 1 | 62 |
| CC(C)Nc1cc(-c2ccc3cc(C#N)cnn23)ncc1C(=O)NCCS(C)(=O)=O [Example 92, 6-(3-cyanopyrrolo[1,2-b]pyridazin-7-yl)-4-(isopropylamino)-N-(2-(methylsulfonyl)ethyl) nicotinamide] | 2 | 80 |
| CC(C)(O)[C@H](F)CNC(=O)c1cnc(-c2ccc3cc(C#N)cnn23)cc1N[C@@H]1C[C@@H]2CC[C@H]1O2 [Example 93, 4-(((1R,2R,4S)-7-oxabicyclo[2.2.1]heptan-2-yl)amino)-6-(3-cyano-pyrrolo[1,2-b]pyridazin-7-yl)-N-((R)-2-fluoro-3-hydroxy-3-methylbutyl)nicotinamide] | 1 | 78 |
| CC(C)(O)[C@H](F)CNC(=O)c1cnc(-c2ccc3cc(C#N)cnn23)cc1N[C@@H]1C[C@H]2CC[C@@H]1O2 [Example 94, 4-(((1S,2R,4R)-7-oxa-bicyclo[2.2.1]heptan-2-yl)amino)-6-(3-cyanopyrrolo[1,2-b]pyridazin-7-yl)-N-((R)-2-fluoro-3-hydroxy-3-methylbutyl)nicotinamide] | 1 | 92 |
| CC(C)Nc1cc(-c2ccc3cc(C#N)cnn23)ncc1C(=O)NCCC1(O)CCOCC1 [Example 95, 6-(3-cyanopyrrolo[1,2-b]pyridazin-7-yl)-N-(2-(4-hydroxytetrahydro-2H-pyran-4-yl)ethyl)-4-(isopropylamino) nicotinamide] | 1 | 42 |
| CC(C)Nc1cc(-c2ccc3cc(C#N)cnn23)ncc1C(=O)NC1CC2(COC2)C1 [Example 96, 6-(3-cyanopyrrolo[1,2-b]pyridazin-7-yl)-4-(isopropyl-amino)-N-(2-oxaspiro[3.3]heptan-6-yl) nicotinamide] | 2 | 79 |
| CC(C)(O)[C@H](F)CNC(=O)c1cnc(-c2ccc3cc(C#N)cnn23)cc1NCC1(O)CC1 [Example 97, (R)-6-(3-cyanopyrrolo[1,2-b]pyridazin-7-yl)-N-(2-fluoro-3-hydroxy-3-methylbutyl)-4-(((1-hydroxycyclopropyl)methyl)amino)nicotinamide] | 2 | 180 |
| CC(C)(O)[C@H](F)CNC(=O)c1cnc(-c2ccc3cc(C#N)cnn23)cc1NC1CN(S(C)(=O)=O)C1 [Example 98, (R)-6-(3-cyanopyrrolo[1,2-b]pyridazin-7-yl)-N-(2-fluoro-3-hydroxy-3-methylbutyl)-4-((1-(methylsulfonyl)azetidin-3-yl)amino)nicotinamide] | 2 | 358 |
